Six compounds from article doi:10.1101/2022.07.07.499167v1, “The thermodynamic state of aerobic glycolytic flux plays a critical role in stabilizing aerobic glycolytic flux of cancer cells” (biorxiv, 2022) can be followed below.

The target of assay [1] is T1, pure recombinant PKM2 (Homo sapiens, UniProt P14618).
T1 construct: gene PKM; PKM2 cDNA in pQE-30, 6xHis tag (removal not mentioned), expressed in E. coli M15 (pREP4), Ni-NTA purified
The assay is described as follows: LDH-coupled pyruvate kinase assay, NADH absorbance […] nm. In kind it is biochemical. The note with it: 0.2 mM PEP, 2 mM ADP, 5 mM MgCl2, 100 mM KCl, pH 7.4, 37 °C; no FBP; allosteric inhibitor.

In assay [2] the target is T1, pure recombinant PKM2. Described as above. The note with it: 0.2 mM PEP, 2 mM ADP, 5 mM MgCl2, 100 mM KCl, pH 7.4, 37 °C; no inhibitor mixture; allosteric activator. In kind it is biochemical.

T1 sequence (P14618 2-531): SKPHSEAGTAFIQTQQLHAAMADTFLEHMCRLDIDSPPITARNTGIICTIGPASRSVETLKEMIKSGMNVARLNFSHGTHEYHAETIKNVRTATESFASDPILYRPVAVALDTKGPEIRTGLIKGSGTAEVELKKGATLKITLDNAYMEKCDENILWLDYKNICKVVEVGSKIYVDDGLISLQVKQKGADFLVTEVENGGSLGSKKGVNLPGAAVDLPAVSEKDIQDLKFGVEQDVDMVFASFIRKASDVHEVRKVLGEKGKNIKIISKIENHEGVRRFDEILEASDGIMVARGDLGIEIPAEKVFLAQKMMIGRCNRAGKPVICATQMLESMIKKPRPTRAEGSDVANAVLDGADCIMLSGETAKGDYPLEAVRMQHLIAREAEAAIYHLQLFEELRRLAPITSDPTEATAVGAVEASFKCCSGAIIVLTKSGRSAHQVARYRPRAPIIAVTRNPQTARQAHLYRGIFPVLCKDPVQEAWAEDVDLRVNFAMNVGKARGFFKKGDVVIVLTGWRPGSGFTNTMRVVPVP

In the case of `N[C@@H](Cc1ccccc1)C(=O)O` [Phenylalanine], on pure recombinant PKM2 [1], the IC50 – broadly, the concentration that inhibits the measured activity by half – came out at 40.9 ± 13.4 µM.

As for `N[C@@H](Cc1c[nH]c2ccccc12)C(=O)O` [Tryptophan], on pure recombinant PKM2 [1], the IC50 turned out to be 254 ± 104 µM.

For `C[C@H](N)C(=O)O` [Alanine], at pure recombinant PKM2 [1], the IC50 is 227 ± 174 µM.

With `CC(C)[C@H](N)C(=O)O` [Valine], the IC50 on pure recombinant PKM2 [1] came to 373 ± 175 µM.

For `O=P(O)(O)OC[C@H]1OC(O)(COP(=O)(O)O)[C@@H](O)[C@@H]1O` (stereo partly drawn) [FBP], the AC50 (usually the concentration giving half of the maximal activity seen) at pure recombinant PKM2 [2] was 0.0434 ± 0.0217 µM.

With `N[C@@H](CO)C(=O)O` [Serine], the AC50 at pure recombinant PKM2 [2] stood at 339 ± 123 µM.
